Test: Human HepG2 cell viability assay in 384 well format
Assay type: toxicity, cell-based
Parameters: dose 125 nL, time 70.5 hour; cytotoxicity at 70.5 h: concentration not given beside the values
Conditions: HepG2 cells, read-out: Inhibition
`CC1(NC(=O)Cc2csc(-c3cccc(Cl)c3)n2)CCS(=O)(=O)C1` (stereo not given) showed a cytotoxicity at 70.5 h of -63.1%.
Compound `CS(=O)(=O)CCNC(=O)c1cc2ccccc2nc1N1CCCC1` has a cytotoxicity at 70.5 h of -7.07%.
Compound `COc1ccc2c(c1)NC(=O)C2OC(=O)CCc1ccc(F)cc1` (stereo not given) has a cytotoxicity at 70.5 h of 2.64%.
`O=S(=O)(CC1CCCCO1)Nc1cnn(Cc2ccccc2)c1` (stereo not given) showed a cytotoxicity at 70.5 h of -7.62%.
With `NS(=O)(=O)CCNC(=O)c1cc2ccccc2nc1N1CCCC1` the cytotoxicity at 70.5 h was -5.72%.
For `O=C(NCC(=O)N1CCCC1Cc1cccc(F)c1)c1ccccn1` (stereo not given), the cytotoxicity at 70.5 h was -9.78%.
For `O=C(NCCSc1ccccc1F)NCc1cccnc1`, the cytotoxicity at 70.5 h was -6.59%.
`CCOC(=O)NCCNC(=O)c1cc2ccccc2nc1N1CCCC1` showed a cytotoxicity at 70.5 h of 2.35%.
Compound `O=C(CCc1ccsc1)Nc1ccnn1C1CCS(=O)(=O)C1` (stereo not given) has a cytotoxicity at 70.5 h of 16.5%.
With `O=C(NCCCSc1ccc(F)cc1)C1CCc2cn[nH]c2C1` (stereo not given) the cytotoxicity at 70.5 h was -4.46%.
Compound `CCCn1nc2c(cc1=O)CN(c1ncnc3sccc13)CC2` has a cytotoxicity at 70.5 h of -10.8%.
`Cc1nc(CNC(=O)N2CCN(c3ccc(Cl)cn3)CC2)no1` gave a cytotoxicity at 70.5 h of 3.34%.
Work on `CCc1[nH]nc(NC(=O)c2cc[nH]n2)c1C` yielded a cytotoxicity at 70.5 h of 6.09%.
With `CCc1[nH]nc(NC(=O)c2ccc(Cl)cn2)c1C` the cytotoxicity at 70.5 h was 7.84%.
`O=C(Cc1ccon1)N1CCN(c2ccc(F)cc2Cl)CC1` showed a cytotoxicity at 70.5 h of -6.01%.
For `CNC(=O)NCC(=O)N1CCCC1Cc1cccc(F)c1` (stereo not given), the cytotoxicity at 70.5 h was 2.87%.
In the case of `CCc1nc(CCNc2ncccn2)sc1C`, the cytotoxicity at 70.5 h is reported as -7.68%.
For `O=C(CCNCc1cccc2c1OCCCO2)NC1CCCC1`, the cytotoxicity at 70.5 h was 6.45%.
With `CCc1nc2n(n1)CC(NCc1nc3ccccc3nc1C)CC2` (stereo not given) the cytotoxicity at 70.5 h was 1.64%.
`COCc1nc2cc3c(cc2c(=O)o1)OCCCO3` gave a cytotoxicity at 70.5 h of -7.11%.
With `COc1ccccc1OCc1nc2cc3c(cc2c(=O)o1)OCCCO3` the cytotoxicity at 70.5 h was 31.8%.
Compound `COC(=O)CSCc1noc(-c2ccc(Cl)cc2)n1` has a cytotoxicity at 70.5 h of -13.5%.
Compound `COC(=O)CSCc1nc(-c2ccc(Cl)cc2)no1` has a cytotoxicity at 70.5 h of 11%.
Work on `Cc1ccc(-c2cc(CN(CC(N)=O)CC(C)C)on2)cc1` yielded a cytotoxicity at 70.5 h of -2.81%.
Compound `CN(C)c1nc(N)nc(CN2CCCC(c3ccccc3)CC2)n1` (stereo not given) has a cytotoxicity at 70.5 h of -3.13%.
For `Cc1cc(CN(CC(N)=O)CC(C)C)no1`, the cytotoxicity at 70.5 h was -4.27%.
`CCn1cnnc1CNC(=O)N1CCOC(c2ccc(Cl)cc2)C1` (stereo not given) gave a cytotoxicity at 70.5 h of -13.5%.
`CCn1cnnc1CNC(=O)N1CCOC(c2ccccc2Cl)C1` (stereo not given) showed a cytotoxicity at 70.5 h of -3.84%.
`O=C(Nc1cn[nH]c1)NC1CCN(c2ccccc2OC(F)F)C1` (stereo not given) gave a cytotoxicity at 70.5 h of 2.39%.
Work on `Cc1cc(CNCC2(O)CCOCC2)ccc1F` yielded a cytotoxicity at 70.5 h of -0.741%.
With `COC(CNC(=O)c1ccoc1)c1cccc(Cl)c1` (stereo not given) the cytotoxicity at 70.5 h was -5.07%.
In the case of `CCc1nc(CCNc2ncccc2S(N)(=O)=O)sc1C`, the cytotoxicity at 70.5 h is reported as 1.18%.
Compound `CNC(=O)c1cccnc1NCc1ccc(Cn2cccn2)cc1` has a cytotoxicity at 70.5 h of -3.1%.
Work on `CNC(=O)c1cccnc1NCc1ccc(Cn2ccnc2)cc1` yielded a cytotoxicity at 70.5 h of 34.2%.
Work on `CNC(=O)c1cccnc1NCc1ccc(-n2cccn2)cc1` yielded a cytotoxicity at 70.5 h of 4%.
With `Cc1nnc(CN(C)CC(=O)N2CCCC(C(F)(F)F)C2)n1C` (stereo not given) the cytotoxicity at 70.5 h was 16.8%.
`CN(Cc1nc(C2CC2)no1)C1CCS(=O)(=O)C1` (stereo not given) showed a cytotoxicity at 70.5 h of -4.77%.
For `COc1ccc(OCc2noc(CN(C)C3CCS(=O)(=O)C3)n2)cc1` (stereo not given), the cytotoxicity at 70.5 h was -5.76%.
`CC(C)Cc1noc(CN(C)C2CCCC2)n1` showed a cytotoxicity at 70.5 h of 28.6%.
Compound `CCc1nc2n(n1)CC(NCc1nc3ccccc3o1)CC2` (stereo not given) has a cytotoxicity at 70.5 h of -8.97%.
In the case of `CCc1nc2n(n1)CC(NCc1cc3ccccc3o1)CC2` (stereo not given), the cytotoxicity at 70.5 h is reported as -8.62%.
For `c1ccc(CCN2CCc3c(ncn3C3CC3)C2)nc1`, the cytotoxicity at 70.5 h was -3.33%.
`CN(C)S(=O)(=O)CCCN1CCc2c(ncn2C2CC2)C1` showed a cytotoxicity at 70.5 h of 9.65%.
With `NC(=O)NC(=O)C(c1ccccc1)N1CCN(Cc2ccc(Cl)s2)CC1` (stereo not given) the cytotoxicity at 70.5 h was -3.49%.
For `O=C(NC1CC1)C(c1ccccc1)N1CCN(Cc2ccc(Cl)s2)CC1` (stereo not given), the cytotoxicity at 70.5 h was -3.83%.
In the case of `O=C1CCC(=O)N1Cc1ccc(C(=O)N2CCCC2c2cccs2)cc1` (stereo not given), the cytotoxicity at 70.5 h is reported as -11.1%.
`CC(C(=O)Nc1ccccc1F)S(C)(=O)=O` (stereo not given) gave a cytotoxicity at 70.5 h of 2.07%.
`CC(C)CCNC(=O)NC(C)c1nncn1C` (stereo not given) gave a cytotoxicity at 70.5 h of 22%.
`NC(=O)C1CCN(C(=O)NC2CCc3cc(F)ccc32)CC1` (stereo not given) gave a cytotoxicity at 70.5 h of 2.63%.
Compound `O=C(NCC1CCC1)c1ccc(-n2ccnc2)nn1` has a cytotoxicity at 70.5 h of 5.15%.
In the case of `CN1CCOC(CNC(=O)C2(c3cccc(C(F)(F)F)c3)CCCC2)C1` (stereo not given), the cytotoxicity at 70.5 h is reported as 6.99%.
Work on `CC1CCCN(C(=O)c2occc2COc2cccc(C#N)c2)C1` (stereo not given) yielded a cytotoxicity at 70.5 h of 4.5%.
`Cc1cc(CN(Cc2ccccc2)C2CC2)on1` gave a cytotoxicity at 70.5 h of -0.663%.
In the case of `CCNS(=O)(=O)c1ccc(C)c(C(=O)N(C)Cc2ccccc2C)c1`, the cytotoxicity at 70.5 h is reported as 2.99%.
For `COCCN(Cc1ccc(F)cc1Cl)C(=O)c1cc[n+]([O-])cc1`, the cytotoxicity at 70.5 h was 17.1%.
`CCc1ccsc1C(=O)N1CCCC(c2noc(C)n2)C1` (stereo not given) showed a cytotoxicity at 70.5 h of -2.57%.
Work on `Cc1nc(C2CCCN(C(=O)c3cc(C)sc3C)C2)no1` (stereo not given) yielded a cytotoxicity at 70.5 h of -2.35%.
In the case of `CSCCNC(=O)c1cc(Br)cn1C(C)C`, the cytotoxicity at 70.5 h is reported as -1.74%.
`CCNS(=O)(=O)c1ccc(C)c(C(=O)N(CCC#N)Cc2ccco2)c1` gave a cytotoxicity at 70.5 h of 19.1%.
For `CCc1nc(CN2CCCC(N(C)CCn3cccn3)C2)no1` (stereo not given), the cytotoxicity at 70.5 h was 57.1%.
Compound `CCOC(C)C(=O)N1CCN(S(C)(=O)=O)CC1` (stereo not given) has a cytotoxicity at 70.5 h of -112%.
With `CC(NC(=O)C1=NN(C)C(=O)CC1)c1ccccc1Cl` (stereo not given) the cytotoxicity at 70.5 h was -96.4%.
Work on `CS(=O)(=O)CCOc1nc(-c2ccccc2Cl)no1` yielded a cytotoxicity at 70.5 h of -102%.
With `CC(CN1CCCC1=O)NC(=O)c1ccc(C(F)(F)F)[nH]c1=O` (stereo not given) the cytotoxicity at 70.5 h was -74.6%.
`CCc1ncc2c(n1)CN(Cc1cc(C)on1)CC2` gave a cytotoxicity at 70.5 h of -106%.
`CC(CN1CCCC1=O)NC(=O)c1cc(=O)[nH]c2ccc(Cl)cc12` (stereo not given) showed a cytotoxicity at 70.5 h of -85.6%.
`Cc1n[nH]c(C2CN(CC(=O)NCCc3ccc(F)cc3)CCO2)n1` (stereo not given) showed a cytotoxicity at 70.5 h of -114%.
For `O=C(NS(=O)(=O)c1c(Cl)cccc1Cl)c1cccc2c1OCCO2`, the cytotoxicity at 70.5 h was -103%.
For `COC(=O)c1ccccc1S(=O)(=O)NC(=O)c1cccc2c1OCCO2`, the cytotoxicity at 70.5 h was -100%.
With `CCC(COC)NC(=O)N1CCC(n2ccc(C(F)(F)F)n2)CC1` (stereo not given) the cytotoxicity at 70.5 h was -104%.
`O=C(NCCCF)N1CCC(n2ccc(C(F)(F)F)n2)CC1` showed a cytotoxicity at 70.5 h of -104%.
`COC(C)(C)CNC(=O)N1CCC(n2ccc(C(F)(F)F)n2)CC1` showed a cytotoxicity at 70.5 h of -76.1%.
With `Cc1cccc(C(=O)N2CCN(S(C)(=O)=O)[C@@H](C)C2)c1Cl` the cytotoxicity at 70.5 h was -102%.
Work on `CCc1ncc2c(n1)CN(Cc1nnc(C(C)C)o1)CC2` yielded a cytotoxicity at 70.5 h of -99.6%.
For `CCc1ncc2c(n1)CN(Cc1nnc(CC)o1)CC2`, the cytotoxicity at 70.5 h was -79.4%.
`COCCc1noc(CN2CCCC2c2noc(C)n2)n1` (stereo not given) showed a cytotoxicity at 70.5 h of -0.394%.
Compound `CN1CCN(CC2CCN(C(=O)CCC3CCCCC3)CC2)CC1` has a cytotoxicity at 70.5 h of -2.91%.
Compound `O=S(=O)(NCC1COc2ccccc2C1)N1CCCCCC1` (stereo not given) has a cytotoxicity at 70.5 h of -7.48%.
For `Cc1ccc(C(=O)NC2CCN(Cc3nc(CC(C)C)no3)CC2)s1`, the cytotoxicity at 70.5 h was 1.36%.
For `CCCc1noc(CN2CCC(NC(=O)c3ccc(C)s3)CC2)n1`, the cytotoxicity at 70.5 h was -4.33%.
`Nc1ncc(C(=O)N2CCN(c3nccs3)CC2)cc1Cl` showed a cytotoxicity at 70.5 h of -4.3%.
For `CCOC(=O)NCCC(=O)NC(C)(C)c1ccc2c(c1)OCCO2`, the cytotoxicity at 70.5 h was -6.26%.
Compound `COCC(NC(=O)c1ccco1)c1cccc(C(F)(F)F)c1` (stereo not given) has a cytotoxicity at 70.5 h of -3.48%.
Work on `O=C(C(CNCc1cccs1)c1ccccc1)N1CCOCC1` (stereo not given) yielded a cytotoxicity at 70.5 h of 7.5%.
For `CCn1nc2c(cc1=O)CN(Cc1nc(C)c3ccccc3n1)CC2`, the cytotoxicity at 70.5 h was -6.18%.

Source: ChEMBL document CHEMBL3507680, “University of Dundee, Gates Library screen for HepG2 cell viability”
